“Also recorded” adds a separate entry of the source.
Columns and labels:
bacterial abscesses = assay: Gamma camera scintigraphy of bacterial abscesses in goats; format: in vivo; conditions: goat; for abscess visibility by gamma camera, adjoining bacterial abscesses of 2 months and three days old: about 1 mCi, imaged the next day
Experimental: Bacterial abscesses were also evoked in goats in accordance with the following procedure: 4 Droppings (faeces) of goats were stirred in 10 ml phosphate-buffered, saline solution (pH 7.2), emulsified in 10 ml mineral oil (Freund's complete adjuvant), and injected subcutaneously into four goats (2.5 ml per goat) at the left flank of the abdomen. Within a day the goats developed fever (temperature rose from 39.3° to over 40° C.) and a firm abscess with a diameter of about 10 cm. appeared.
In order to prepare granulocyte suspensions blood was sampled from a goat via the neck vein, and anticoagulated by the addition of heparin. The granulocytes were purified by a known sedimentation technique. The separation fluid consisted of: 10 Parts of Isopaque (sodium metrizoate) (32.8%) mixed with 24 parts Ficoll (Pharmacia) 8% (in H2 O). The density was: 1.077 g/ml. Equal parts of anticoagulated blood and 0.9% NaCl were mixed and 20 ml of the mixture was layered over 10 ml of Isopaque-Ficoll in a centrifuge tube. The mixture was centrifuged at 1000 g for 15 minutes. After centrifugation the mononuclear cells (monocytes and lymphocytes) were found as a narrow band at the interface between the plasma layer and the separation fluid. The layer above the erythrocyte sediment, also containing granulocytes, was removed down to 1 to 2 mm above the erythrocyte meniscus. The erythrocyte layer was mixed with a 3 to 5 fold volume of phosphate-buffered saline solution and centrifuged for 7 minutes at 1200 g. The supernatant was pipetted-off down to the erythrocyte meniscus. The erythrocytes were lysed by addition of 30 ml 155 mM NH4 Cl solution (also containing 10 mM KHCO3 0.1 mM EDTA) pH 7.4, mixing and 15 minutes storage at 4° C. After centrifugation (400 g) the granulocytes were resuspended in NH4 Cl solution (15 ml) 0.5% albumin and stored 15 minutes at 4° C. After microscopic control the cells were washed in PBS containing 0.5% albumin and were consecutively suspended in 5 ml PBS containing 0.5% albumin. In that condition the cells are ready for indium-111-oxinate labeling.
Indium-111-oxinate labeled granulocytes were made by the Thakur procedure. In this preparation 2×50 ml conical centrifuge tubes are sterilized at 120° C. for 2 hours. In-111 Cl3 (Byk-Mallinckrodt CIL B.V.) 0.1 M HCl solution (5 mCi/ml) is used. 1 ml H2 O is added for injection, as are 50 μl oxine (BDH or Merck) solution (1 mg/ml in ethanol), and 200 μl acetate buffer 0.3 M pH 5.6 after a short wait of about a minute. The In-111-oxinate is extracted into about 2 ml CHCl3, and is evaporated to dryness by heating in a water bath. The material is dissolved in 100 μl absolute ethanol and again evaporated and dissolved in 50 μl absolute ethanol. […]

[1] = Tissue distribution of In-111 in goats with bacterial abscesses (radioactivity per gram of tissue, scintillation counter); conditions: goat
Experimental: The distribution of In-111 was determined in the different organs and tissues of three goats. One goat was injected with In-111-oxinate labeled autologous granulocytes, one with plain In-111-oxinate and one with plain In-111-chloride. The injections with the isotope formulations took place 2 days before the animals were sacrificed and dissected. Pieces of abscess, organs and tissues were sampled, weighed and the radioactivity was measured in a scintillation counter. The radioactivities per gram of tissue were determined.
The tissue distribution of In-111 in the goat was determined to show the distribution of radioactivity among the organs.
In order to illustrate the process of the invention a goat with adjoining bacterial abscesses of 2 months and three days old was injected with In-111-oxinate (ca. 1 mCi). The goat was imaged by gamma camera the next day. […] The goat was sacrificed and the distribution of radioactivity between the different tissues and organs determined.
The goat that was intravenously injected with In-111-chloride was dissected two days after the injection, and the distribution of radioactivity among the different tissues and organs determined.

[2] = Experimental: The clearance of In-111 from the blood of the goats was followed after intravenous injection of In-111 in three different formulations, namely In-111-chloride, In-111-oxinate and In-111-oxinate labeled granulocytes, respectively, in order to determine the biological half life for each of these different formulations. After injection, 10 ml blood samples were taken at intervals. All blood samples were subjected to differential centrifugation in order to determine whether the radioactivity was localized in the plasma, platelets, red cell fraction or leukocytes. Platelet rich plasma (PRP) was prepared by centrifugation of heparinised blood at 200 g during 15 minutes. After sampling of the PRP (1 ml) the residue was centrifuged at 1600 g for 10 minutes. 1 ml samples were taken from the plasma layer (platelet poor plasma=PPP), from the interface between plasma and red cells (leukocytes) and from the red cell fraction. The radioactivities were determined and clearance was determined corrected for physical decay.
The clearance of In-111 from the blood of goats was followed after intravenous injection of In-111 in three different goats and formulations,namely, In-111-chloride, In-111-oxinate and In-111-oxinate labeled granulocytes, respectively, in order to determine the biological half-life of In-111.
The clearance of In-111 in a goat which was injected with In-111-oxinate labeled granulocytes was also studied.

blood cells = assay: Washing of blood cells with PBS (binding of radioactivity to blood cells after injection); conditions: goat blood cells
[3] = intravenous, two days after the injection

[111In+3].[O-]c1cccc2cccnc12.[O-]c1cccc2cccnc12.[O-]c1cccc2cccnc12 [In-111-oxinate]
abscess visibility by gamma camera, adjoining bacterial abscesses of 2 months and three days old (bacterial abscesses): clear spot | accumulation of In-111 in the cell fraction of the blood (tissue distribution study) [1]: strong accumulation of In-111 in the cell fraction of the blood, almost as much as the radioactivity per gram of tissue of the spleen | accumulation of radioactivity in fat, muscle, marrow from the femur, gall, faeces, pancreas and urine [1]: no significant accumulation of radioactivity | accumulation of radioactivity in heart muscle [1]: moderate accumulation of In-111 | radioactivity in pus of the old and new abscesses [1]: little radioactivity | accumulation of In-111 in tissue of the old abscess ([1]; 2 months old abscess): high accumulation of In-111, similar to the kidney and ovarium | radioactivity of inflamed lymph node relative to a non-inflamed one ([1]; 2 days after injection): two | radioactivity accumulation in tissue of the new abscess ([1]; three days old abscess): moderate radioactivity accumulation more than, for example, the lymph node and muscles, but far less than ovarium, uterus, lung, kidney, spleen and blood | course of radioactivity in blood after injection (another goat) ([2]; another goat): gradual decrease of radioactivity immediately after the goat was injected | preference of the cells for the agent (another experiment in another goat) ([2]; another goat): strong preference of the cells | preference of indium-111 for white cells ([2]; another goat, sample had about an equal amount of plasma): no preference of indium-111 for white cells | time of optimal accumulation in the cell fraction of the blood ([2]; goat, after injection): five | In-111 activity level in blood after two days ([2]; goat, intravenous): very slow decline of the activity level | In-111 level in the blood, first two days ([2]; goat, intravenous): gradual increase of In-111 in the blood for two days | radioactivity in the blood one week later ([2]; goat, intravenous): still a significant amount of radioactivity in the blood | preference of In-111 for the cell fraction of the blood ([2]; goat, intravenous, clearance study): clear preference of In-111 to accumulate in the cell fraction of the blood | binding of radioactivity to blood cells on washing with PBS (blood cells): firmly bound

[Cl][111In]([Cl])[Cl] [In-111-chloride]
abscess visibility by gamma camera, adjoining bacterial abscesses of 2 months and three days old (bacterial abscesses): well-visible spot | abscess visibility by gamma camera, bacterial abscesses of 2 months and three days old, subcutaneous injection (bacterial abscesses; ca. 1 mCi, accidental subcutaneous injection, twenty-four hours later): distinct, well-visible spot | spread of radioactivity after subcutaneous injection (bacterial abscesses; ca. 1 mCi, subcutaneous): spread via the peripheral vascular system, not via the neck vein to the heart and the lungs | accumulation of In-111 in the cell fraction of the blood (tissue distribution study) [1]: only a small amount of In-111 accumulated in the blood cells | radioactivity in pus of the old and new abscesses [1]: hardly any radioactivity | radioactivity in the kidney ([1]; 2 days after injection): strongly labeled | radioactivity of inflamed lymph node relative to a non-inflamed one ([1]; 2 days after injection): three | accumulation of In-111 in fat, urine and gall [1, 3]: no significant accumulation of In-111 | accumulation of radioactivity in intraperitoneally penetrated part of the abscess [1, 3]: slightly higher accumulation of radioactivity, but the accumulation was less than in the old abscess in the In-111-oxinate study | accumulation of radioactivity in the spleen and liver [1, 3]: moderate accumulations of radioactivity | distribution of blood radioactivity between plasma and cells [1, 3]: Most of the radioactivity was in the plasma, not in the cells | labeling of the blood [1, 3]: very moderately labeled | radioactivity in tissue of old and new abscesses [1, 3]: moderate radioactivity, somewhat more than lymph node and muscle, far less than ovarium, uterus, lung and kidney | clearance of indium from blood, four days ([2]; goat, intravenous): almost disappeared in four days | clearance of indium from blood, level within two days ([2]; goat, intravenous): decline to a very low level of radioactivity within two days | binding of radioactivity to blood cells on washing with PBS (blood cells): could be easily washed out; also recorded: could be washed out by PBS
